The source of these data is publication PMC6270011, “Design and Synthesis of Arylthiophene-2-Carbaldehydes via Suzuki-Miyaura Reactions and Their Biological Evaluation” (Molecules, 2013).

For one series, the system named is Pseudomonas aeruginosa. Description: Antibacterial activity (disc / inhibition zone) against Pseudomonas aeruginosa. As to conditions: read-out: Inhibition zone, P. aeruginosa.
The test system of another series is Shigella dysenteriae. Description: Antibacterial activity (disc / inhibition zone) against Shigella dysenteriae. As to conditions: read-out: Inhibition zone, S. dysenteriae.
The subject of series [1] is human red blood cells (erythrocytes). The class given is cell-based. As to conditions: human erythrocytes, 37 °C, 35 min. How it is done: Three mL of freshly obtained human blood was placed in heparinized tubes to avoid coagulation, gently mixed and poured into a sterile 15 mL Falcon tube and centrifuged for 5 min at 1,000 ×g. The supernatant was discarded and red blood cells were washed three times with chilled (4 °C) sterile isotonic phosphate buffer saline pH 7.4 (5 mL). Erythrocytes (10^8 cells/mL) were maintained for each assay by dilution with phosphate buffer saline. Erythrocytes were counted on a heamacytometer. Twenty µL of each compound was mixed with red blood cells suspension (180 μL) separately. The samples were incubated at 37 °C for 35 min. The samples were placed on ice for 5 min and then agitated at 1,000 ×g for 5 min. Supernatant (100 µL) were taken from each tube and diluted 10 times with chilled (4 °C) phosphate buffered saline. Triton X-100 (0.1% v/v) was taken as a positive control and PBS was negative control and then subjected to the same process. […] The percentage RBSs lyses for each sample was calculated.

The test system of another series is Salmonella typhi. Nature of the series: Antibacterial activity (disc / inhibition zone) against Salmonella typhi. As to conditions: Salmonella enterica, read-out: Inhibition zone, S. typhi.
For the next series, the system named is Gram-negative bacteria. Nature of the series: Antibacterial activity against Gram-negative bacteria (strain not named). The class given is cell-based.
Series [2] is described as follows: Nitric oxide (NO) scavenging assay. The class given is biochemical. From the text:
Nitric oxide (NO) is a free radical causing inflammatory disorders and cancer in the human body when sodium nitroprusside decomposes to produce nitric oxide. The antioxidant activity of various thiophene derivatives has been reported in the literature and it has also been observed that compounds with high antioxidant activity served as antitumor agents. The newly synthesized compounds reacted directly with nitric oxide and inhibited nitrite formation in an excellent way.
The reaction mixtures comprising sample solution (2 µL), phosphate buffer (17 µL) and sodium nitroprusside (20 µL) were incubated at 37 °C for 2 h in well plates. Then Griess reagent (20 µL, 0.3% sulphanilic acid in glacial acetic acid + 0.1% naphthylethylenediamine (NED): equal volumes of both solutions mixed just before use) was added to each well plate and the mixture kept at room temperature for 20 min to develop the color. The absorbance was measured at 528 nm by using an ELISA reader. The results were processed using Gen 5 software. All the reactions were performed in triplicate. Positive control (containing known antioxidant) and control (containing all samples) were run in parallel. Negative control was used to calibrate the instrument. The % age antioxidant activity was determined by using the following formula: % antioxidant activity = [(Absorbance of control − absorbance of sample)/(Absorbance of control)] × 100

A further series relates to Bacillus subtilis. Nature of the series: Antibacterial activity (disc / inhibition zone) against Bacillus subtilis. As to conditions: read-out: Inhibition zone, B. subtilis.
A further series concerns Escherichia coli. Nature of the series: Antibacterial activity (disc / inhibition zone) against Escherichia coli. The following applies: read-out: Inhibition zone, E.coli.
Another series concerns Staphylococcus aureus. Description: Antibacterial activity (disc / inhibition zone) against Staphylococcus aureus. The following applies: read-out: Inhibition zone, S. aureus.

Structures are written as SMILES. In brackets after ≈: the same amount, converted by molar mass. Where two headings read alike, the source gives them in different places.

For the molecule `Cc1cc(C)cc(-c2csc(C=O)c2)c1` [2g, 4-(3,5-Dimethylphenyl)thiophene-2-carbaldehyde], the melting point – broadly, the temperature, or range, at which the solid turns liquid – lay in the range of 71 to 73 °C. In addition, in the series with Pseudomonas aeruginosa, the zone of inhibition at 25 µg/mL was 25 ± 0.06 mm and the zone of inhibition at 50 µg/mL is 56 ± 0.04 mm. Besides, in the series with Shigella dysenteriae, the zone of inhibition at 25 µg/mL came to 32 ± 0.01 mm and the zone of inhibition at 50 µg/mL is 59 ± 0.44 mm. For the same molecule, in series [1], the “Haemolytic activity, percentage of lysis (Average ± SD)” value is 4.525 ± 0.075%. Moreover, in the series on Salmonella typhi, the zone of inhibition at 25 µg/mL turned out to be 32.2 ± 0.11 mm and the zone of inhibition at 50 µg/mL came to 61 ± 0.16 mm. In the series on Gram-negative bacteria, it took 45.2 µg/mL (≈ 209 µM) to reach half-maximal inhibition (IC50). For the same molecule, the inhibition in series [2] (25 µg/mL, read-out: % Activity at 25 µg (NO scavenging)) was 13 ± 0.002%. Besides, the inhibition in [2] (50 µg/mL, read-out: % Activity at 50 µg (NO scavenging)) was 28 ± 0.007%. For the same molecule, in [2] (100 µg/mL, read-out: % Activity at 100 µg (NO scavenging)), the inhibition was determined as 43 ± 0.002%. Also, in the series on Bacillus subtilis, the zone of inhibition at 25 µg/mL turned out to be 36 ± 0.08 mm and the zone of inhibition at 50 µg/mL was 56 ± 0.24 mm. In the series on Escherichia coli, the zone of inhibition at 25 µg/mL was 22.5 ± 0.11 mm and the zone of inhibition at 50 µg/mL came to 44.5 ± 0.19 mm. In addition, in the series on Staphylococcus aureus, the zone of inhibition at 25 µg/mL came to 27 ± 0.08 mm and the zone of inhibition at 50 µg/mL was 59 ± 0.44 mm.
